Measured values published in article PMC7748285, “A small molecule that mitigates bacterial infection disrupts Gram-negative cell membranes and is inhibited by cholesterol and neutral lipids” (PLoS Pathogens, 2020).

Molecular target: T1, AcrB (Escherichia coli, UniProt P31224)
T1 construct: 4·His tag at the C-terminus
Assay: isothermal titration calorimetry (ITC) with purified AcrB, […]°C
Format: binding

T1 sequence (P31224 whole entry): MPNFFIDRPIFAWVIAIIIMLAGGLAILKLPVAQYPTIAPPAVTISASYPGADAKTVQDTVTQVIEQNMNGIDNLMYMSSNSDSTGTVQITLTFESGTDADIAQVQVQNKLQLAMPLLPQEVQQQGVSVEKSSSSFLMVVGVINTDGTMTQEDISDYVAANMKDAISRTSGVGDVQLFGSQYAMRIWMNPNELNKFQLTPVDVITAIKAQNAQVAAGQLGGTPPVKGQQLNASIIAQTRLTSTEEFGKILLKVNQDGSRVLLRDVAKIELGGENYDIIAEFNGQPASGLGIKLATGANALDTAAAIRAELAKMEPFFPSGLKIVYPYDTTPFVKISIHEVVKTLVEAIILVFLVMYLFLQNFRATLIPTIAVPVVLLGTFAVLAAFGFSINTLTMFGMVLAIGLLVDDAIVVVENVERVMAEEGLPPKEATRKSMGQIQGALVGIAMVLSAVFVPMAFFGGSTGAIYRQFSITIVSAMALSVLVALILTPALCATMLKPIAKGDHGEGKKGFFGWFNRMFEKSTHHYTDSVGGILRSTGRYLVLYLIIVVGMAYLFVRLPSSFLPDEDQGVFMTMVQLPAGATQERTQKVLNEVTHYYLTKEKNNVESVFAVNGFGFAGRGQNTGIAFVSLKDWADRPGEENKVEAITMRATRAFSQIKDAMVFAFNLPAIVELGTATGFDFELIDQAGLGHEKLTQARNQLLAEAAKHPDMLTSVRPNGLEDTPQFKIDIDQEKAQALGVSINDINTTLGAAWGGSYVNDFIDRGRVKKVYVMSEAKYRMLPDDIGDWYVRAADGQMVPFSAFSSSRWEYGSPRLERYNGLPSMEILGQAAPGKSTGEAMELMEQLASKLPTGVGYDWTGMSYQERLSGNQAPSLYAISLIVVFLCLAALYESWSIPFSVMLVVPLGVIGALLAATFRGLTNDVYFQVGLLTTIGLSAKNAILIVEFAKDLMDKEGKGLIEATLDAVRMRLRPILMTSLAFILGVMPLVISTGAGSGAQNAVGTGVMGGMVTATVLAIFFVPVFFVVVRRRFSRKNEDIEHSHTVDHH

How did the Kd turn out when OC(COc1ccc(C23CC4CC(CC(C4)C2)C3)cc1)CN1CCCCC1 (stereo not shown) [JD1] was run?
The Kd was 520 nM.
